Assay results taken from ChEMBL document CHEMBL5614418, “Discovery of novel dihydropyrrolidone-thiadiazole compound crosstalk between the YycG/F two-component regulatory pathway and cell membrane homeostasis to combat methicillin-resistant Staphylococcus aureus” (Eur J Med Chem, 2024).
Values after ≈ are worked out from the molar mass of the structure shown. Active and inactive are the calls of the source. The rule behind the calls is not given here.

How the values were obtained:
Enterococcus faecium = test: Antibacterial activity against Enterococcus faecium EFM64 by broth microdilution method; type: functional
[1] = test system: Staphylococcus epidermidis; test: Antibacterial activity against Staphylococcus epidermidis SE1457 by broth microdilution method; type: functional
[2] = Hemolytic activity against human erythrocytes measured after 1 hr; type: toxicity, cell-based, Erythrocyte
Enterococcus faecalis = test: Antibacterial activity against Enterococcus faecalis OG1RF by broth microdilution method; type: functional
[3] = Cytotoxicity against human LX2 cells incubated for 24 hrs by CCK8 assay; type: toxicity, cell-based; details: LX-2 cells
Staphylococcus aureus [4] = test: Antibacterial activity against methicillin sensitive Staphylococcus aureus SA113 by broth microdilution method; type: functional
[5] = biological target: T1, Sensor protein kinase WalK (Staphylococcus aureus, UniProt Q9RDT3); test: Inhibition of Staphylococcus aureus YycG expressed in Escherichia coli preincubated for 30 mins followed by ATP addition and measured after 30 mins by kinase-Glo luminescent assay
T1 sequence (Q9RDT3 whole entry): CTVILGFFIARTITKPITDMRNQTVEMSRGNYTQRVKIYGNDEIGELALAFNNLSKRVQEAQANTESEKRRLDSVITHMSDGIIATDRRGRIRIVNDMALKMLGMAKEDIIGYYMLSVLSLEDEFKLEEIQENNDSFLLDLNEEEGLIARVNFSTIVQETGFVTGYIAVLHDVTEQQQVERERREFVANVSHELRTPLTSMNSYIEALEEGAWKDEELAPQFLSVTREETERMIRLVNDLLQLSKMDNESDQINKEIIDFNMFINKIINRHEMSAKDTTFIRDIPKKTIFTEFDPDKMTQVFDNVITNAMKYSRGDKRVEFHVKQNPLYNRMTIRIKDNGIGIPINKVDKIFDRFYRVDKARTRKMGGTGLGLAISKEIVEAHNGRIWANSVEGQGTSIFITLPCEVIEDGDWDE

Staphylococcus aureus [6] = test: Antibacterial activity against methicillin resistant Staphylococcus aureus USA300 infected in BALB/c mouse pneumonia model assessed as increase in mouse survival rate at 20 mg/kg, ip administered every 12 hrs for 3 times and measured after 48 hrs; type: functional, organism-based
Staphylococcus aureus [7] = test: Antibacterial activity against methicillin resistant Staphylococcus aureus USA300 infected in BALB/c mouse pneumonia model assessed as log reduction in lung bacterial count at 20 mg/kg, ip administered every 12 hrs for 3 times and measured after 48 hrs; type: functional
[8] = test system: Staphylococcus epidermidis; test: Induction of matured biofilm eradication in Staphylococcus epidermidis SE1457 assessed as reduction in bacterial survival in biofilm at 8 times MIC incubated for 48 hrs by SYTO 9 staining based confocal fluorescence microscopic analysis; type: functional
[9] = test system: Staphylococcus epidermidis; test: Antibacterial activity against methicillin resistant Staphylococcus epidermidis SE1457 infected in BALB/c mouse wound model assessed as log reduction in wound bacterial load at 10 mg/kg, ip administered every 12 hrs for 3 times and measured after 48 hrs; type: functional
Staphylococcus aureus [10] = test: Bactericidal activity against Staphylococcus aureus USA300 assessed as planktonic cells killing by measuring log reduction in bacterial count at 8 times MIC measured after 24 hrs; type: functional, organism-based
Staphylococcus aureus [11] = test: Antibacterial activity against methicillin resistant Staphylococcus aureus USA300 by broth microdilution method; type: functional
[12] = test system: Staphylococcus epidermidis; test: Bactericidal activity against Staphylococcus epidermidis SE1457 assessed as planktonic cells killing by measuring log reduction in bacterial count at 8 times MIC measured after 24 hrs; type: functional, organism-based
Staphylococcus aureus [13] = test: Induction of matured biofilm eradication in methicillin resistant Staphylococcus aureus YUSA145 assessed as reduction in bacterial survival in biofilm at 8 times MIC incubated for 48 hrs by SYTO 9 staining based confocal fluorescence microscopic analysis; type: functional
Staphylococcus aureus [14] = test: Antibacterial activity against methicillin resistant Staphylococcus aureus USA300 infected in BALB/c mouse wound model assessed as log reduction in wound bacterial load at 10 mg/kg, ip administered every 12 hrs for 3 times and measured after 48 hrs; type: functional
[15] = test system: Staphylococcus epidermidis; test: Induction of resistance development in Staphylococcus epidermidis SE1457 assessed as fold increase in MIC at 1/2 MIC incubated for 16 hrs after 20 serial passages; type: functional
Staphylococcus aureus [16] = test: Induction of resistance development in methicillin sensitive Staphylococcus aureus SA113 assessed as fold increase in MIC at 1/2 MIC incubated for 16 hrs after 20 serial passages; type: functional

SMILES | MIC (Enterococcus faecium) [µM] | MIC [1] [µM] | HC50 at 1 h [2] [µM] | MIC (Enterococcus faecalis) [µM] | CC50 at 24 h [3] [µM] | MIC (Staphylococcus aureus [4]) [µM] | other results
COc1ccc(C(=O)C2=C(O)C(=O)N(c3nnc(SCc4ccccc4)s3)C2c2ccccc2O)cc1 (stereo unspecified) | > 100 | > 100 | > 200 | > 100 | > 100 | > 100 | 
COc1cc(C2C(C(=O)c3cc4ccccc4o3)=C(O)C(=O)N2c2nnc(SCc3ccccc3)s2)ccc1O (stereo unspecified) | > 100 | > 100 | > 200 | > 100 | > 100 | > 100 | 
O=C(C1=C(O)C(=O)N(c2nnc(SCc3ccc(Cl)cc3)s2)C1c1ccccc1O)c1cc2ccccc2o1 (stereo unspecified) | 50 (≈ 28.8 µg/mL) | 25 (≈ 14.4 µg/mL) | > 200 | 50 (≈ 28.8 µg/mL) | > 100 | 25 (≈ 14.4 µg/mL) | 
O=C(C1=C(O)C(=O)N(c2nnc(SCc3ccccc3Cl)s2)C1c1ccc(O)c(Br)c1)c1cc2ccccc2o1 (stereo unspecified) | > 100 | > 100 | > 200 | > 100 | > 100 | > 100 | 
O=C(C1=C(O)C(=O)N(c2nnc(SCc3ccccc3)s2)C1c1ccccc1O)c1ccc([N+](=O)[O-])cc1 (stereo unspecified) | > 100 | > 100 | > 200 | > 100 | > 100 | > 100 | 
O=C(C1=C(O)C(=O)N(c2nnc(SCc3cccc(Cl)c3)s2)C1c1ccccc1O)c1cc2ccccc2o1 (stereo unspecified) | 25 (≈ 14.4 µg/mL) | 25 (≈ 14.4 µg/mL) | > 200 | 25 (≈ 14.4 µg/mL) | > 100 | 50 (≈ 28.8 µg/mL) | 
COc1cc(C2C(C(=O)c3cc4ccccc4o3)=C(O)C(=O)N2c2nnc(SCc3ccccc3Cl)s2)ccc1O (stereo unspecified) | > 100 | 25 (≈ 15.2 µg/mL) | > 200 | > 100 | > 100 | > 100 | IC50 [5]: 46.1 µM
CN[C@H](CC(C)C)C(=O)N[C@H]1C(=O)N[C@@H](CC(N)=O)C(=O)N[C@H]2C(=O)N[C@H]3C(=O)N[C@H](C(=O)N[C@H](C(=O)O)c4cc(O)cc(O)c4-c4cc3ccc4O)[C@H](O)c3ccc(c(Cl)c3)Oc3cc2cc(c3O[C@@H]2O[C@H](CO)[C@@H](O)[C@H](O)[C@H]2O[C@H]2C[C@](C)(N)[C@H](O)[C@H](C)O2)Oc2ccc(cc2Cl)[C@H]1O [VANCOMYCIN] |  |  |  |  |  |  | Activity (Staphylococcus aureus [6]): Active; log(activity) (Staphylococcus aureus [7]): 2
COc1ccc(O)c(C2C(C(=O)c3cc4ccccc4o3)=C(O)C(=O)N2c2nnc(SCc3ccccc3Cl)s2)c1 (stereo unspecified) | 100 (≈ 60.6 µg/mL) | 50 (≈ 30.3 µg/mL) | > 200 | 100 (≈ 60.6 µg/mL) | > 100 | 50 (≈ 30.3 µg/mL) | 
O=C(C1=C(O)C(=O)N(c2nnc(SCc3ccccc3)s2)C1c1ccc(O)c(O)c1)c1cc2ccccc2o1 (stereo unspecified) | > 100 | > 100 | > 200 | > 100 | > 100 | > 100 | 
O=C(C1=C(O)C(=O)N(c2nnc(SCc3ccccc3Cl)s2)C1c1ccc(O)cc1)c1cc2ccccc2o1 (stereo unspecified) | > 100 | 50 (≈ 28.8 µg/mL) | > 200 | > 100 | > 100 | 100 (≈ 57.6 µg/mL) | 
CCCCCCCCCC(=O)N[C@@H](Cc1c[nH]c2ccccc12)C(=O)N[C@H](CC(N)=O)C(=O)N[C@@H](CC(=O)O)C(=O)N[C@@H]1C(=O)NCC(=O)N[C@@H](CCCN)C(=O)N[C@@H](CC(=O)O)C(=O)N[C@H](C)C(=O)N[C@@H](CC(=O)O)C(=O)NCC(=O)N[C@H](CO)C(=O)N[C@@H]([C@H](C)CC(=O)O)C(=O)N[C@@H](CC(=O)c2ccccc2N)C(=O)O[C@@H]1C | 2 (≈ 3.24 µg/mL) | 2 (≈ 3.24 µg/mL) |  | 2 (≈ 3.24 µg/mL) |  | 2 (≈ 3.24 µg/mL) | Activity [8]: <50%; log(activity) [9]: 1; Activity (Staphylococcus aureus [10]): inactive; MIC (Staphylococcus aureus [11]): 2 µg/mL (≈ 1.23 µM); Activity [12]: inactive; Activity (Staphylococcus aureus [13]): <50%; log(activity) (Staphylococcus aureus [14]): 1
O=C(C1=C(O)C(=O)N(c2nnc(SCc3ccccc3Cl)s2)C1c1ccccc1)c1cc2ccccc2o1 (stereo unspecified) | > 100 | > 100 | > 200 | > 100 | > 100 | > 100 | 
O=C(C1=C(O)C(=O)N(c2nnc(SCc3ccccc3)s2)C1c1cccc(O)c1O)c1cc2ccccc2o1 (stereo unspecified) | 25 (≈ 13.9 µg/mL) | 50 (≈ 27.9 µg/mL) | > 200 | 25 (≈ 13.9 µg/mL) | > 100 | 50 (≈ 27.9 µg/mL) | 
O=C(C1=C(O)C(=O)N(c2nnc(SCc3ccccc3)s2)C1c1ccccc1O)c1ccc(C(F)(F)F)cc1 (stereo unspecified) | > 100 | > 100 | > 200 | > 100 | > 100 | > 100 | 
O=C(C1=C(O)C(=O)N(c2nnc(SCc3ccccc3)s2)C1c1ccccc1O)c1cc2ccccc2s1 (stereo unspecified) | > 100 | > 100 | > 200 | > 100 | > 100 | > 100 | 
O=C(C1=C(O)C(=O)N(c2nnc(SCc3ccccc3Cl)s2)C1c1cccc(O)c1)c1cc2ccccc2o1 (stereo unspecified) | > 100 | > 100 | > 200 | > 100 | > 100 | > 100 | 
O=C(C1=C(O)C(=O)N(c2nnc(SCc3ccccc3Cl)s2)C1c1ccccc1O)c1cc2ccccc2s1 (stereo unspecified) | > 100 | > 100 | > 200 | > 100 | > 100 | > 100 | 
O=C(O)COc1ccc(C2C(C(=O)c3cc4ccccc4o3)=C(O)C(=O)N2c2nnc(SCc3ccccc3Cl)s2)cc1 (stereo unspecified) | > 100 | > 100 | > 200 | > 100 | > 100 | > 100 | 
O=C(C1=C(O)C(=O)N(c2nnc(SCc3ccccc3)s2)C1c1ccccc1O)c1ccc(F)cc1 (stereo unspecified) | > 100 | > 100 | > 200 | > 100 | > 100 | > 100 | 
CC(=O)NC[C@H]1CN(c2ccc(N3CCOCC3)c(F)c2)C(=O)O1 |  |  |  |  |  |  | fold change (FC) [15]: 4; fold change (FC) (Staphylococcus aureus [16]): 4
O=C(C1=C(O)C(=O)N(c2nnc(SCc3ccccc3)s2)C1c1ccc(O)cc1O)c1cc2ccccc2o1 (stereo unspecified) | > 100 | > 100 | > 200 | > 100 | > 100 | > 100 | 
COC(=O)COc1ccc(C2C(C(=O)c3cc4ccccc4o3)=C(O)C(=O)N2c2nnc(SCc3ccccc3Cl)s2)cc1 (stereo unspecified) | > 100 | > 100 | > 200 | > 100 | > 100 | > 100 | 
